# PMC10137255, “Disturbing the Redox Balance Using Buthionine Sulfoximine Radiosensitized Somatostatin Receptor-2 Expressing Pre-Clinical Models to Peptide Receptor Radionuclide Therapy with ^177Lu-DOTATATE” (Cancers, 2023)
# Several values for one entry are separate records, joined by “and”; a condition that tells them apart may be missing. Equal values may be shown once.
# What was measured:
# HBL melanoma cell line = conditions: 5 MBq 177Lu-DOTATATE for 4 h and/or BSO 10^−7 M from the day before irradiation until day 10, crystal violet day 10, % of non-treated, mean ± SEM, n = 12 from 3 independent experiments
# [1] = parameters: method as in PMID 27092812, PMID 8270977, PMID 8558205, PMID 9392620; conditions: early-phase clinical studies on solid tumours; cited from earlier work
# [2] = tested on: total glutathione in MIA-PACA-2 cells; test: Total glutathione quantification, MIA-PACA-2; format: cell-based, human; conditions: 10^−7 M BSO for 18 h, vs non-treated, mean ± SEM, n = 6 from 2 independent experiments
# Protocol: (§1) Total glutathione was assessed in cell lines and mice tissues using the Quantification kit for oxidized and reduced glutathione (Sigma), according to the manufacturer’s instructions. Cells in culture were harvested, washed and then lysed with freeze-thaw cycles and subsequently mixed with 5% 5-sulfosalicylic acid. After centrifugation at 8000× g for 10 min, the supernatant was collected, and the 5-sulfosalicylic acid concentration was reduced to 0.5% with water for glutathione quantification. Tumour, liver and kidneys were harvested, snap-frozen in liquid nitrogen and stored at −70 °C until assayed for glutathione. Tissues were homogenized in 5% 5-sulfosalicylic acid in lysing matrix D tubes (MP Biomedicals) containing ceramic beads using a FastPrep-24 homogenizer (MP Biomedicals, Irvine, CA, USA) and centrifuged at 8000× g for 10 min. The supernatant was collected, and the 5-sulfosalicylic acid concentration was reduced to 0.5% with water for glutathione quantification. The buffer solution was added to samples (either from cell lines or tissues) (in triplicates) in a 96-well plate. […] Absorbance was read at 405 nm using a microplate reader (Thermo Labsystems Multiskan EX, ThermoFisher, Waltham, MA, USA). Total glutathione concentration was determined using a calibration curve.
# liver = test: H&E staining of liver; conditions: mouse, in vivo
# Protocol: (§2) Liver and kidneys were harvested, fixed in PAXgene Tissue FIX (Qiagen, Hilden, Germany) for 1 day at room temperature and kept at 4 °C in PAXgene Tissue STABILIZER (Qiagen) until they were embedded in paraffin for histological studies. Staining was carried out on 4 μm paraffin-embedded tissue sections subsequently deparaffinized in xylene and rehydrated in decreasing alcohol concentrations. Slides were incubated in Mayer’s hematoxylin for 6 min and subsequently in eosin for 3 min. Slides were mounted using Tissue-Tek Prisma (Sakura, Alphen aan den Rijn, The Netherlands). Digital scans of slides were acquired with Nanozoomer NDP (Hamamatsu Photonics, Shizuoka, Japan) and analysed by an experienced clinical pathologist.
# [3] = tested on: EJM multiple myeloma cell line; conditions: 5 MBq 177Lu-DOTATATE for 4 h and/or BSO 10^−7 M from the day before irradiation until day 10, crystal violet day 10, % of non-treated, mean ± SEM, n = 12 from 3 independent experiments
# [4] = tested on: MIA-PACA-2 pancreatic adenocarcinoma cell line; conditions: 5 MBq 177Lu-DOTATATE for 4 h and/or BSO 10^−7 M from the day before irradiation until day 10, crystal violet day 10, % of non-treated, mean ± SEM, n = 12 from 3 independent experiments
# [5] = tested on: HT-29 colon adenocarcinoma cell line; conditions: 5 MBq 177Lu-DOTATATE for 4 h and/or BSO 10^−7 M from the day before irradiation until day 10, crystal violet day 10, % of non-treated, mean ± SEM, n = 12 from 3 independent experiments
# [6] = tested on: total glutathione in COLO-677 cells; test: Total glutathione quantification, COLO-677; format: cell-based, human; conditions: 10^−7 M BSO for 18 h, vs non-treated, n = 6 from 2 independent experiments
# Protocol: as §1
# kidneys = test: H&E staining of kidneys; conditions: mouse, in vivo
# Protocol: as §2
# MM162 melanoma cell line = conditions: 5 MBq 177Lu-DOTATATE for 4 h and/or BSO 10^−7 M from the day before irradiation until day 10, crystal violet day 10, % of non-treated, mean ± SEM, n = 12 from 3 independent experiments
# [7] = Water intake and tolerability in mice; conditions: EJM xenograft nude mice; BSO 10 mM in drinking water; 30 MBq 177Lu-DOTATATE IV
# Protocol: (§3) Mice experiments were approved by the animal ethics committee of Université Libre de Bruxelles (Comité d’Ethique du Bien-Etre Animal (CEBEA)) and performed according to European guidelines. Female athymic nude Foxn1^nu mice (Charles River) (age = 5 to 6 weeks) were subcutaneously injected in the right flank with 1 × 10^6 EJM cells suspended in 100 µL of PBS and matrigel (1:1; Cultrex™ Basement Membrane Extract, Type 3, R&D Systems). The tumours were allowed to grow for 4 weeks before initiating treatments. At a tumour size of approximately 0.5 cm^3, mice were randomized into 4 treatment groups of 10 mice: control, ^177Lu-DOTATATE, BSO and ^177Lu-DOTATATE + BSO. […] All mice were monitored three times a week for body weight and tumour growth using a calliper. Tumour volume (mm^3) was calculated using the formula π/6 × length × width × height. The relative tumour volume was represented and calculated as (tumour volume on measured day)/(tumour volume measured at baseline). […] Another group of mice receiving ^177Lu-DOTATATE alone or in combination with BSO was sacrificed 24, 72 and 168 h post-injection (p.i.) for ex vivo biodistribution studies and early glutathione quantification (4 mice per group per time point) (Figure 1).
# [8] = tested on: total glutathione in EJM tumours; test: Total glutathione in EJM tumours; format: in vivo, mouse; conditions: BSO 10 mM via drinking water (2 mmol/kg/day), summary in discussion
# Protocol: as §3
# [9] = tested on: EJM multiple myeloma xenograft; test: Tumour growth (calliper), EJM xenograft; format: in vivo, mouse; conditions: 30 MBq 177Lu-DOTATATE IV day 28 and/or 10 mM BSO drinking water 3 weeks, exponential growth fit, [95% CI], 8 to 10 mice per group
# Protocol: as §3
# [10] = cited from earlier work
# Protocol: The optimal combination treatment schedule would still have to be determined, which would be the one allowing the use of the minimal effective dose of BSO, i.e., the dose necessary to achieve sufficient tumour GSH depletion to have an efficient tumour radiosensitization, without excessive healthy tissue toxicity. The rapid clearance of BSO (estimated half-life in plasma of less than 2 h) and the rapid rate of GSH turnover would allow one to closely control GSH levels with BSO and allow for a GSH depletion only during tumour irradiation with ^177Lu-DOTATATE, limiting the potential ...
# [11] = tested on: total glutathione in HBL cells; test: Total glutathione quantification, HBL; format: cell-based, human; conditions: 10^−7 M BSO for 18 h, vs non-treated, mean ± SEM, n = 6 from 2 independent experiments
# Protocol: as §1
# [12] = tested on: COLO-677 multiple myeloma cell line; conditions: 5 MBq 177Lu-DOTATATE for 4 h and/or BSO 10^−7 M from the day before irradiation until day 10, crystal violet day 10, % of non-treated, mean ± SEM, n = 12 from 3 independent experiments
# [13] = tested on: total glutathione in EJM cells; test: Total glutathione quantification, EJM; format: cell-based, human; conditions: 10^−7 M BSO for 18 h, vs non-treated, mean ± SEM, n = 6 from 2 independent experiments
# Protocol: as §1
# [14] = tested on: total glutathione in HT-29 cells; test: Total glutathione quantification, HT-29; format: cell-based, human; conditions: 10^−7 M BSO for 18 h, vs non-treated, n = 6 from 2 independent experiments
# Protocol: as §1
# [15] = tested on: total glutathione in MM162 cells; test: Total glutathione quantification, MM162; format: cell-based, human; conditions: 10^−7 M BSO for 18 h, vs non-treated, mean ± SEM, n = 6 from 2 independent experiments
# Protocol: as §1
# EJM xenograft mice = test: Ex vivo biodistribution and time-activity curves; format: in vivo, mouse; conditions: 30 MBq 177Lu-DOTATATE IV ± 10 mM BSO via drinking water, single exponential fit of time-activity curve, n = 1 to 6 mice per group
# Protocol: as §3
# bone marrow [16] = test: Bone marrow smears and cytological assessment; format: in vivo, mouse; conditions: 29 to 38 days p.i.
# Protocol: At the time of sacrifice, bone marrow (BM) was harvested from both femurs (containing hematopoietically active marrow) of the animals. Femurs were excised from each mouse, and then the attached muscle was trimmed from the periosteal surface and the bone was opened at the distal end. BM was isolated using the cytocentrifuge method. In brief, the femur was placed in a 0.5 mL Eppendorf tube pre-punctured with a needle at the base of the tube to form an opening. The 0.5 mL tube was nested within a 1.5 mL Eppendorf tube, and both were centrifuged at 10,000 rpm for 15 s to form a BM pellet at the bottom of the 1.5 mL Eppendorf tube yet to retain the femur within the 0.5 mL tube. • Bone marrow smears and cytological assessment.
# BM smears were prepared using the push-slide technique. In brief, one drop of BM was placed at one extremity of a glass slide and was then spread in an even film using a second glass slide (held at an angle) as a spreader. The spreader slide was slid forward the length of the slide to produce a smear. Slides were fixed in absolute methanol for 5 min and then air-dried. May-Grunwald–Giemsa staining was used for routine evaluation of BM cytomorphology. […] A qualitative and quantitative cytological evaluation of all the major lineages was performed by an experienced clinical pathologist on 300 to 500 cells. • Bone marrow apoptosis assessment.
# bone marrow [17] = test: Bone marrow apoptosis assessment (Annexin V/7-AAD); format: in vivo, mouse; conditions: mice sacrificed 29 to 38 days post-177Lu-DOTATATE injection; Annexin V/7-AAD flow cytometry; mean ± SEM; 3 to 4 mice per group
# Protocol: At the time of sacrifice, bone marrow (BM) was harvested from both femurs (containing hematopoietically active marrow) of the animals. Femurs were excised from each mouse, and then the attached muscle was trimmed from the periosteal surface and the bone was opened at the distal end. BM was isolated using the cytocentrifuge method. In brief, the femur was placed in a 0.5 mL Eppendorf tube pre-punctured with a needle at the base of the tube to form an opening. The 0.5 mL tube was nested within a 1.5 mL Eppendorf tube, and both were centrifuged at 10,000 rpm for 15 s to form a BM pellet at the bottom of the 1.5 mL Eppendorf tube yet to retain the femur within the 0.5 mL tube. • Bone marrow smears and cytological assessment. BM samples were assayed for apoptosis. A 10 min incubation step at 37 °C with NH4Cl was performed for red blood cell lysis. Samples were then centrifuged for 5 min, and the supernatant containing lysed red blood cells was discarded. Samples were then incubated with Annexin-V Binding Buffer (ThermoFisher, Waltham, MA, USA), Annexin V (BD Biosciences, Franklin Lakes, NJ, USA) and 7-AAD (BD Biosciences, Franklin Lakes, NJ, USA) for 15 min at room temperature. Annexin Buffer was added to samples that were subsequently analysed using a MACSQuant Analyzer 10 Flow Cytometer (Miltenyi Biotec, Bergisch Gladbach, Germany).
compound,measurement,setting,value
"CCCCS(=N)(=O)CC[C@H](N)C(=O)O (stereo partly drawn) [BSO, L-Buthionine-(S,R)-Sulfoximine]",cell survival,HBL melanoma cell line,81.2 ± 3.8%
same,adverse events caused by BSO alone,[1],only grade 1–2 nausea and vomiting
same,change in total glutathione levels,[2],−20.7 ± 3.5%
same,liver histology (H&E),liver,No morphological changes were observed
same,cell survival,[3],did not affect cell lines survival
same,cell survival,[4],87.6 ± 3.8%
same,cell survival,[5],did not affect cell lines survival
same,change in total glutathione levels,[6],not affected
same,kidney histology (H&E),kidneys,No morphological changes were observed
same,cell survival,MM162 melanoma cell line,did not affect cell lines survival
same,water intake,[7],5.6 ± 0.6 mL/day/mouse
same,tumour GSH depletion,[8],~ 80%
same,Tumour doubling time,[9],7.5 days and 7.5 [6.3 – 9.1] days
same,estimated half-life in plasma,[10],less than 2 h
same,change in total glutathione levels,[11],−21.5 ± 3.0%
same,cell survival,[12],did not affect cell lines survival
same,change in total glutathione levels,[13],−9.4 ± 2.2%
same,change in total glutathione levels,[14],not affected
same,change in total glutathione levels,[15],−11.1 ± 3.7%
"C[C@@H](O)[C@H](NC(=O)[C@@H]1CSSC[C@H](NC(=O)[C@@H](Cc2ccccc2)NC(=O)CN2CCN(CC(=O)O)CCN(CC(=O)O)CCN(CC(=O)O)CC2)C(=O)N[C@@H](Cc2ccc(O)cc2)C(=O)N[C@H](Cc2c[nH]c3ccccc23)C(=O)N[C@@H](CCCCN)C(=O)N[C@@H]([C@@H](C)O)C(=O)N1)C(=O)O [^177Lu-DOTATATE, metal not drawn]",liver histology (H&E),liver,No morphological changes were observed
same,kidney histology (H&E),kidneys,No morphological changes were observed
same,effective half-life in the kidneys,EJM xenograft mice,13.7 h
same,effective half-life in the liver,EJM xenograft mice,24 h
same,water intake,[7],5.2 ± 0.5 mL/day/mouse
same,"relative proportion of BM lineages (erythroid, granulocytic, lymphoid), between treatment groups","bone marrow [16]; BM smears, May-Grunwald–Giemsa, 3 to 4 mice per group",no significant differences
same,qualitative assessment of BM smears (morphology),bone marrow [16]; major BM lineages including megakaryocytes,did not show any morphological abnormalities
same,BM apoptotic cells,bone marrow [17],33.0 ± 2.8%
